Source: patent US20080027140A1, “Combinations of Serotonin Reuptake Inhibitors and Imidazoline I 2 Agonists” (MERCK PATENT GMBH, priority 2004, published 2008)
“Also recorded” adds a separate entry of the source.

How the values were obtained:
[1] = tested on: extracellular 5-HT level in the frontal cortex; assay: Microdialysis studies: extracellular 5-HT level in the frontal cortex of rats; type: in vivo
mice = assay: Marble burying test (animal model of anxiety states); type: in vivo; details: 3 mg/kg subcutaneously each substance, individually or combined at the same dose; 30 minutes test; FIG. 3
Protocol: A typical animal model of anxiety states is the “marble burying test” (for example Njung'e and Handley, Br J Pharmacol 1991, 104: 105-112), which has, in particular, specificity for obsessive-compulsive disorders and obsessive-compulsive spectrum disorders. The experimental device consists of a cube-shaped box open at the top in which 25 clear glass marbles are arranged at uniform separations on a 5 cm deep layer of sawdust. Mice are placed individually in the test box for 30 minutes. The number of marbles buried in the sawdust during the test duration of 30 minutes serves as a measure of anxiety. Untreated mice bury the most marbles in the sawdust, anxiolytics reduce the number of buried marbles.

rats = assay: Forced swimming test (animal model of depression); type: in vivo
Protocol: A typical animal model of depression is the “forced swimming test” (R. D. Porsolt et al., Nature 1977; 266(5604): 730-732), which is carried out with rats. This model is based on the behaviour known as “behavioural despair”, which the animals show in a hopeless situation known to them: If the rats are placed in a water-filled vessel (usually for 15 minutes) from which they cannot escape, they cease their attempts to escape from the situation after a certain time and remain in immobility or make only the most necessary swimming movements. If the rats are subjected to this situation again the next day, they recognise the hopelessness of the situation and remain in immobility for the majority of the time, and the time which the animals spend in immobility (which is regarded as surrogate for depression) during the 5-minute test duration serves as a measure of the depression. Anti-depressants shorten this immobility time. Fluoxetine (5 mg/kg perorally) and 2-BFI (3 and 10 mg/kg perorally) are administered—individually or combined—either in accordance with a repeated acute scheme (fluoxetine 24 h, 5 h and 2 h; 2-BFI 24 h, 5 h and 1 h before commencement of the test) or in accordance with a subchronic scheme (fluoxetine or 2-BFI once daily for 7 days, on the final day fluoxetine 2 h and 2-BFI 1 h before commencement of the test).

[2] = tested on: extracellular level of serotonin (5-HT) in the brain; details: fluoxetine alone, even at a relatively high dose; literature (Artigas et al.); cited from earlier work

| Compound | effect on the extracellular 5-HT level in the frontal cortex ([1]; 2-BFI alone, 20 mg/kg subcutaneously, FIG. 1) | number of buried marbles compared with vehicle-treated mice (mice) | immobility phase (rats; repeated acute scheme, 2-BFI alone 3 and 10 mg/kg perorally, 24 h, 5 h and 1 h before test, FIG. 4) | immobility phase (rats; subchronic scheme, once daily for 7 days, 2-BFI alone 3 and 10 mg/kg perorally, FIG. 5) | effect on the extracellular 5-HT level ([1]; fluoxetine alone, 10 mg/kg intraperitoneally, FIG. 2, 10 mg/kg) | immobility phase (rats; repeated acute scheme, fluoxetine alone 5 mg/kg perorally, 24 h, 5 h and 2 h before test, FIG. 4) | immobility phase (rats; subchronic scheme, once daily for 7 days, fluoxetine alone 5 mg/kg perorally, FIG. 5) | approximately three-fold increase of the extracellular 5-HT level [2] |
| --- | --- | --- | --- | --- | --- | --- | --- | --- |
| c1ccc2oc(C3=NCCN3)cc2c1 [2-BFI, 2-(2-benzofuranyl)-2-imidazoline] | no effect | reduced the number of buried marbles only slightly | does not reduce the immobility phase | Virtually identical effects | – | – | – | – |
| CNCCC(Oc1ccc(C(F)(F)F)cc1)c1ccccc1 (stereo not drawn) [fluoxetine] | – | reduced the number of buried marbles only slightly | – | – | slightly raises; also recorded: only a slight increase | only a negligible effect | Virtually identical effects | cannot be achieved |
